According to article PMC8550792, “Evolution of kinase polypharmacology across HSP90 drug discovery” (Cell Chemical Biology, 2021):

What was measured:
Assay in all cases: biochemical
Assay type in all cases: biochemical
382 unique human kinases [1] = molecular target: T1, 382 unique human kinases (Homo sapiens, UniProt Q15831); conditions: LKB1, compound at 10 uM, duplicate values; for remaining activity at 10 µM: read-out: % Enzyme Activity (relative to DMSO controls)
T1 construct: purchased Reaction Biology (HotSpot contract assay)
T1 sequence (Q15831 1-433): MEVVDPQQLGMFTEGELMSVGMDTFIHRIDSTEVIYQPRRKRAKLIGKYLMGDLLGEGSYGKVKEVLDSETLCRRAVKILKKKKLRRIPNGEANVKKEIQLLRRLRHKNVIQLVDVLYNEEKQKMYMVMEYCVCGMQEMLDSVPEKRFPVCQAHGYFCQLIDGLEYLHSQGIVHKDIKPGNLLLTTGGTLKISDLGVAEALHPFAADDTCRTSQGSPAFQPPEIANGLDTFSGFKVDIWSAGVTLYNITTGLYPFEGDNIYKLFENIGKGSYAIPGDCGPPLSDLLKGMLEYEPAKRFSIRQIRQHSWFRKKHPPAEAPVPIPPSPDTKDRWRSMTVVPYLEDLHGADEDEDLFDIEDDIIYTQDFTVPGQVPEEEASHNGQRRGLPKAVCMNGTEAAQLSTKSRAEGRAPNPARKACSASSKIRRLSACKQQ

382 unique human kinases [2] = molecular target: T2, 382 unique human kinases (Homo sapiens, UniProt Q8N4C8); conditions: MINK/MINK1, 10 uM; for remaining activity at 10 µM: read-out: % Enzyme Activity (relative to DMSO controls)
T2 construct: purchased Reaction Biology (HotSpot contract assay)
T2 sequence (Q8N4C8 whole entry): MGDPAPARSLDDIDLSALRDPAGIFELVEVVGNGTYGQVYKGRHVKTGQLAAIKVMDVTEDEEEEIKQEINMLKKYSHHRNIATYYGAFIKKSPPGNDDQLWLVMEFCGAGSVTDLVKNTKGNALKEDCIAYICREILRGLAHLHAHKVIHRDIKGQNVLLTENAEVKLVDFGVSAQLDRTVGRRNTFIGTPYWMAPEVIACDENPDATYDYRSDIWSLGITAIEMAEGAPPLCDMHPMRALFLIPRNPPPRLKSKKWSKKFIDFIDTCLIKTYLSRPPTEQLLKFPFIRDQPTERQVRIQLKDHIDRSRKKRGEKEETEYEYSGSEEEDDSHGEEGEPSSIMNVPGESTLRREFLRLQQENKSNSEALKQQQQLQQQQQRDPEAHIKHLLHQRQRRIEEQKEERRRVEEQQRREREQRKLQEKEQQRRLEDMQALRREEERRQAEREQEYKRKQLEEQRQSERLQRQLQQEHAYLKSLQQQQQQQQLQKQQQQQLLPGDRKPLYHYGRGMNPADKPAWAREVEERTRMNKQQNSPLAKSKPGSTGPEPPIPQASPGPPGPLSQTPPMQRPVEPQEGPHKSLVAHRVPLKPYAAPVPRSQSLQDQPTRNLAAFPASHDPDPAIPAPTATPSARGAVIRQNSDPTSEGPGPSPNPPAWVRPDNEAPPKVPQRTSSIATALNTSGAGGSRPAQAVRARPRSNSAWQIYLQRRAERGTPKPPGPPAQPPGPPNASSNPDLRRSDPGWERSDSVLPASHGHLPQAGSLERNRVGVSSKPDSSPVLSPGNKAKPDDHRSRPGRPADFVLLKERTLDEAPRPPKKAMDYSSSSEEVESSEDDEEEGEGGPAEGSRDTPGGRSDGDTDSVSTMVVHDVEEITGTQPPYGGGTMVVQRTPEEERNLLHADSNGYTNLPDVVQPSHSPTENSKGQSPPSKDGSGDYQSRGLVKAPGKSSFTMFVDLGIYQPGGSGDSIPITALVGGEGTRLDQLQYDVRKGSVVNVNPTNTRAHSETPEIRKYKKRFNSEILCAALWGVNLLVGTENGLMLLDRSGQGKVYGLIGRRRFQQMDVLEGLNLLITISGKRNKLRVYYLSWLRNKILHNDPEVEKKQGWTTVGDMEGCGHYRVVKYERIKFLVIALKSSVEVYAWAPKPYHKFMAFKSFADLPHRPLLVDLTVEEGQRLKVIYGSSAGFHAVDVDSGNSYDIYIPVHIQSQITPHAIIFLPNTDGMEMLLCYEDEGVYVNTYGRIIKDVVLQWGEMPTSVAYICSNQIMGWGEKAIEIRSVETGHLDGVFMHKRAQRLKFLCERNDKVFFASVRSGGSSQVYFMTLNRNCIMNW

382 unique human kinases [3] = molecular target: T3, 382 unique human kinases (Homo sapiens, UniProt P08581, D1228N); conditions: c-MET (D1228N), compound at 10 uM, duplicate values; for remaining activity at 10 µM: read-out: % Enzyme Activity (relative to DMSO controls)
T3 construct: purchased Reaction Biology (HotSpot contract assay)

382 unique human kinases [4] = molecular target: T4, 382 unique human kinases (Homo sapiens, UniProt P22612); conditions: kinase PKAcg, compound 10 uM; for remaining activity at 10 µM: read-out: % Enzyme Activity (relative to DMSO controls)
T4 construct: purchased Reaction Biology (HotSpot contract assay)
T4 sequence (P22612 whole entry): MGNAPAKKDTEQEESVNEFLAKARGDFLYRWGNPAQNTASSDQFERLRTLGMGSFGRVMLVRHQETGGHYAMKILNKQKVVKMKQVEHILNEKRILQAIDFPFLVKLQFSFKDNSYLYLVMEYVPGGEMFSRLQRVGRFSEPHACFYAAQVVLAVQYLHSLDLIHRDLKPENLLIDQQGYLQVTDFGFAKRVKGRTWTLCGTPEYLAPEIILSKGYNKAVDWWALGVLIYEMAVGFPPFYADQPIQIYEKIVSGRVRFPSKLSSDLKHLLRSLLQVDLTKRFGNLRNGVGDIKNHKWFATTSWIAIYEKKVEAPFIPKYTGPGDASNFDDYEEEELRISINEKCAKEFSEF

382 unique human kinases [5] = molecular target: T5, 382 unique human kinases (Homo sapiens, UniProt P10721, T670I); conditions: c-Kit (T670I); 10 uM; read-out: % Enzyme Activity (relative to DMSO controls)
T5 construct: purchased Reaction Biology (HotSpot contract assay)

382 unique human kinases [6] = molecular target: T6, 382 unique human kinases (Homo sapiens, UniProt P23443); conditions: kinase p70S6K/RPS6KB1, compound 10 uM; for remaining activity at 10 µM: read-out: % Enzyme Activity (relative to DMSO controls)
T6 construct: purchased Reaction Biology (HotSpot contract assay)

382 unique human kinases [7] = molecular target: T7, 382 unique human kinases (Homo sapiens, UniProt Q02750, P124L); conditions: MEK1 (P124L), 10 uM; for remaining activity at 10 µM: read-out: % Enzyme Activity (relative to DMSO controls)
T7 construct: purchased Reaction Biology (HotSpot contract assay)

382 unique human kinases [8] = molecular target: T8, 382 unique human kinases (Homo sapiens, UniProt P08581, Y1235D); conditions: c-MET (Y1235D), 10 uM; for remaining activity at 10 µM: read-out: % Enzyme Activity (relative to DMSO controls)
T8 construct: purchased Reaction Biology (HotSpot contract assay)

382 unique human kinases [9] = molecular target: T9, 382 unique human kinases (Homo sapiens, UniProt Q6PHR2); conditions: ULK3, 10 uM; for remaining activity at 10 µM: read-out: % Enzyme Activity (relative to DMSO controls)
T9 construct: purchased Reaction Biology (HotSpot contract assay)
T9 sequence (Q6PHR2 1-472): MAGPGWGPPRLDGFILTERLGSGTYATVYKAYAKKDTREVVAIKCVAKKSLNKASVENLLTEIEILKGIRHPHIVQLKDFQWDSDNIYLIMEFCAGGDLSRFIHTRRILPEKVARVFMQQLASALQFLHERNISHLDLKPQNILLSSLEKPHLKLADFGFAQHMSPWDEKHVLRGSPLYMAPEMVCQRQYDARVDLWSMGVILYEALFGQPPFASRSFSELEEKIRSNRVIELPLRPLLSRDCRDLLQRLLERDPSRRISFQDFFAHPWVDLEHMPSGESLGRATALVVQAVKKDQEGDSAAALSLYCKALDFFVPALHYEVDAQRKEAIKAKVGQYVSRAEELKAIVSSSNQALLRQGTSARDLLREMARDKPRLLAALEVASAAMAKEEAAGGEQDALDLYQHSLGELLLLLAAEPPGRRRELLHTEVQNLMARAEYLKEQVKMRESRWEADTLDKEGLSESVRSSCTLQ

382 unique human kinases [10] = molecular target: T10, 382 unique human kinases (Homo sapiens, UniProt O15075); conditions: DCAMKL1, 10 uM; for remaining activity at 10 µM: read-out: % Enzyme Activity (relative to DMSO controls)
T10 construct: purchased Reaction Biology (HotSpot contract assay)
T10 sequence (O15075 whole entry): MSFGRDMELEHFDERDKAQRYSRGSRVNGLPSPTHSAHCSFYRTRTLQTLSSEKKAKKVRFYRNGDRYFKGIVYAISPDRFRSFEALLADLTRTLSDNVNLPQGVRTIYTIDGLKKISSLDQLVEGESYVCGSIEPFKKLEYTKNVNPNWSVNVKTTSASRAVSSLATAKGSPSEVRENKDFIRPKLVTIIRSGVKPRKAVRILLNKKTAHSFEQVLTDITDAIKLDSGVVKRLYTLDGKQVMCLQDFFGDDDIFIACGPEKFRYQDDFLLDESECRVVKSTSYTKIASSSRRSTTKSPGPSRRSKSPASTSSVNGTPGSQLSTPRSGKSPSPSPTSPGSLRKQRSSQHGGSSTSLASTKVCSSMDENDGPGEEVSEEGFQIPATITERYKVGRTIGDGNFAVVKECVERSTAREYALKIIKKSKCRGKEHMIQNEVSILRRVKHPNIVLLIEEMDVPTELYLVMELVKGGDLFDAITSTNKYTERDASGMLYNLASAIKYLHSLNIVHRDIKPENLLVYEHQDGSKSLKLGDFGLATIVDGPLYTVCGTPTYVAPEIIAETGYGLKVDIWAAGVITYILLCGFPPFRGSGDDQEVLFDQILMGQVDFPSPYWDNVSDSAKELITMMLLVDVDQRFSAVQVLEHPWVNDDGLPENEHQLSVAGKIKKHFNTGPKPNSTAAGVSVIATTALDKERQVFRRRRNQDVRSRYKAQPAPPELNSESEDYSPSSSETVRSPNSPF

382 unique human kinases [11] = molecular target: T11, 382 unique human kinases (Homo sapiens, UniProt P08581, M1250T); conditions: c-MET (M1250T), 10 uM; for remaining activity at 10 µM: read-out: % Enzyme Activity (relative to DMSO controls)
T11 construct: purchased Reaction Biology (HotSpot contract assay)

382 unique human kinases [12] = molecular target: T12, 382 unique human kinases (Homo sapiens, UniProt P16234, V561D); conditions: PDGFRa (V561D), 10 uM; for remaining activity at 10 µM: read-out: % Enzyme Activity (relative to DMSO controls)
T12 construct: purchased Reaction Biology (HotSpot contract assay)
T12 sequence (P16234 24-1089 V561D): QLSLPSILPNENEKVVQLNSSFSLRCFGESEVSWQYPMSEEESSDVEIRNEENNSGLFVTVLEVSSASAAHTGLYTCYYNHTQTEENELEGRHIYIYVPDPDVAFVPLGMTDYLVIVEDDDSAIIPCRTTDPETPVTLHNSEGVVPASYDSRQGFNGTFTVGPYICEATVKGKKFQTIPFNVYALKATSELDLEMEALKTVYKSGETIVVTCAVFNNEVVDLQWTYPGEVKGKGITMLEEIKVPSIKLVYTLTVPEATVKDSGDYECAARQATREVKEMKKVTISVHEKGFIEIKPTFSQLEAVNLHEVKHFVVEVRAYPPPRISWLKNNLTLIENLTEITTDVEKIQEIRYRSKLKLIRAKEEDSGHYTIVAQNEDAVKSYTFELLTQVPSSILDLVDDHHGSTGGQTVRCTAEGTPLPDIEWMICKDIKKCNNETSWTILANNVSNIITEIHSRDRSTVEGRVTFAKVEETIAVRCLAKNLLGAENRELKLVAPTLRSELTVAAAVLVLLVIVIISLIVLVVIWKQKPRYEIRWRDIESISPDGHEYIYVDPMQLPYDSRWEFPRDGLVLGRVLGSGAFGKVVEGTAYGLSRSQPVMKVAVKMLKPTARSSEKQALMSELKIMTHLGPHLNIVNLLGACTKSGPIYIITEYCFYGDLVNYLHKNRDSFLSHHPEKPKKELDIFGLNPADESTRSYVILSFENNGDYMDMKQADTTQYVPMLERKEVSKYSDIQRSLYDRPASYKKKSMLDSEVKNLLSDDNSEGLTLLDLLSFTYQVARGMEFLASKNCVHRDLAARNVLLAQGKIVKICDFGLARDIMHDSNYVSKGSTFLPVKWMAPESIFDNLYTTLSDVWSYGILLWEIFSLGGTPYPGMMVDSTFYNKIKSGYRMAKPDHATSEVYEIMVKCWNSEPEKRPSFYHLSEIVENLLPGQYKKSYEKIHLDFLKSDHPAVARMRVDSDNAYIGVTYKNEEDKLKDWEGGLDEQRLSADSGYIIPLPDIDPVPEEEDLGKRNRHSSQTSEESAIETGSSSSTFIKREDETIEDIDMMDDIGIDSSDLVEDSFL

382 unique human kinases [13] = molecular target: T13, 382 unique human kinases (Homo sapiens, UniProt O15530); conditions: PDK1/PDPK1, 10 uM; for remaining activity at 10 µM: read-out: % Enzyme Activity (relative to DMSO controls)
T13 construct: purchased Reaction Biology (HotSpot contract assay)
T13 sequence (O15530 1-556): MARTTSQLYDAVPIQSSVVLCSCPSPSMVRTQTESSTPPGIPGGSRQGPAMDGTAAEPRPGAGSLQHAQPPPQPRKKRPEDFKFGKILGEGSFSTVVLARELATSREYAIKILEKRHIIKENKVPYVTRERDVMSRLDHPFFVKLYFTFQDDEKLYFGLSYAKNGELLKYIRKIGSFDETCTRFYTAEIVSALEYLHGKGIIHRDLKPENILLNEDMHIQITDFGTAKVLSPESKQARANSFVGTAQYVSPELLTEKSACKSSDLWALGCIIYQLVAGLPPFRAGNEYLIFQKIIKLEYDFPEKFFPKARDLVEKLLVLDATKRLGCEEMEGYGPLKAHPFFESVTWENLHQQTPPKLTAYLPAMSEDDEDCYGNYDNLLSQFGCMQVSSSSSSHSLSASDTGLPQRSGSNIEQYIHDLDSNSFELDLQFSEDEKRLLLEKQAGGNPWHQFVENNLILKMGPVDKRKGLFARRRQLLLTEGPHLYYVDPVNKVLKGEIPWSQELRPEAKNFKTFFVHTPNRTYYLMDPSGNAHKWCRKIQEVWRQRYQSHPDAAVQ

382 unique human kinases [14] = molecular target: T14, 382 unique human kinases (Homo sapiens, UniProt P45983); conditions: JNK1, 10 uM; for remaining activity at 10 µM: read-out: % Enzyme Activity (relative to DMSO controls)
T14 construct: purchased Reaction Biology (HotSpot contract assay)
T14 sequence (P45983 whole entry): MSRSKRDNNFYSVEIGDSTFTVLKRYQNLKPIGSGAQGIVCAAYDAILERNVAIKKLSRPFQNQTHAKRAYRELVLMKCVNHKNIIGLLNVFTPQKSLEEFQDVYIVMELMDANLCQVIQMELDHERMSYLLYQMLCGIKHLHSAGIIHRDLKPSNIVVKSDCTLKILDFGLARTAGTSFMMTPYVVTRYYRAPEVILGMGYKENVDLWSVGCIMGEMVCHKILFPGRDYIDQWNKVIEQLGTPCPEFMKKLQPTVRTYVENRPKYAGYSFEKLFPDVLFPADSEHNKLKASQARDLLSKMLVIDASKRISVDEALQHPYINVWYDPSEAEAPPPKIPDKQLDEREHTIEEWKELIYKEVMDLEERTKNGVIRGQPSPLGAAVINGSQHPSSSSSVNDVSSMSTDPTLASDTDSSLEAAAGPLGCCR

382 unique human kinases [15] = molecular target: T15, 382 unique human kinases (Homo sapiens, UniProt Q9NQU5); conditions: PAK6, 10 uM; for remaining activity at 10 µM: read-out: % Enzyme Activity (relative to DMSO controls)
T15 construct: purchased Reaction Biology (HotSpot contract assay)

382 unique human kinases [16] = molecular target: T16, 382 unique human kinases (Homo sapiens, UniProt Q15418); conditions: RSK1, [ATP] 20 µM, compound 10 uM; for remaining activity at 10 µM: read-out: % Enzyme Activity (relative to DMSO controls)
T16 construct: purchased Reaction Biology (HotSpot contract assay)
T16 sequence (Q15418 whole entry): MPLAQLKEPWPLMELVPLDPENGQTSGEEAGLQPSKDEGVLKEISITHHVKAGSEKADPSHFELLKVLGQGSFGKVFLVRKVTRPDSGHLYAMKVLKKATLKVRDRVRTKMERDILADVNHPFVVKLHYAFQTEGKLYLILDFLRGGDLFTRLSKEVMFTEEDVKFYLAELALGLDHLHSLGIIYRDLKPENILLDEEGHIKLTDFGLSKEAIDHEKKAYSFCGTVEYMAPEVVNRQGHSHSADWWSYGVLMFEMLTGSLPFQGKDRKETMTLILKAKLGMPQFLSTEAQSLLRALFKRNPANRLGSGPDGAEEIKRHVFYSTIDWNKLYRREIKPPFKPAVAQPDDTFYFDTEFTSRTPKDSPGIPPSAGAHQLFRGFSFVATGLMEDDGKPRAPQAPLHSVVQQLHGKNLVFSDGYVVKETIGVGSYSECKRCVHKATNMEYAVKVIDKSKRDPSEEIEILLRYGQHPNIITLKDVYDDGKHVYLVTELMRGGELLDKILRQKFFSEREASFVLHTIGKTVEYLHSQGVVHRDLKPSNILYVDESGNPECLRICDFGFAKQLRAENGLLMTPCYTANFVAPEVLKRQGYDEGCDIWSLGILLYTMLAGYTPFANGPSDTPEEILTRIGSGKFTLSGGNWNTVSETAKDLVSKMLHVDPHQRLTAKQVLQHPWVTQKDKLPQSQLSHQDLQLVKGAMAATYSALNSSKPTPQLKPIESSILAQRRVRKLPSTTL

382 unique human kinases [17] = molecular target: T17, 382 unique human kinases (Homo sapiens, UniProt P10721, D816Y); conditions: c-Kit (D816Y), [ATP] 10 µM, compound 10 uM; for remaining activity at 10 µM: read-out: % Enzyme Activity (relative to DMSO controls)
T17 construct: purchased Reaction Biology (HotSpot contract assay)

| Compound | remaining activity at 10 µM (382 unique human kinases [1]) | remaining activity at 10 µM (382 unique human kinases [2]) | remaining activity at 10 µM (382 unique human kinases [3]) | remaining activity at 10 µM (382 unique human kinases [4]) | remaining activity at 10 µM (382 unique human kinases [5]) | remaining activity at 10 µM (382 unique human kinases [6]) | remaining activity at 10 µM (382 unique human kinases [7]) | remaining activity at 10 µM (382 unique human kinases [8]) | remaining activity at 10 µM (382 unique human kinases [9]) | remaining activity at 10 µM (382 unique human kinases [10]) | remaining activity at 10 µM (382 unique human kinases [11]) | remaining activity at 10 µM (382 unique human kinases [12]) | remaining activity at 10 µM (382 unique human kinases [13]) | remaining activity at 10 µM (382 unique human kinases [14]) | remaining activity at 10 µM (382 unique human kinases [15]) | remaining activity at 10 µM (382 unique human kinases [16]) | remaining activity at 10 µM (382 unique human kinases [17]) | further results |
| --- | --- | --- | --- | --- | --- | --- | --- | --- | --- | --- | --- | --- | --- | --- | --- | --- | --- | --- |
| CC(C)c1cc(-c2n[nH]c(=O)n2-c2ccc3c(ccn3C)c2)c(O)cc1O [Ganetespib (STA9090)] | 110% | 73.6% | 108% | 101% | 67.1% | 91.3% | 73.7% | 102% |  |  |  |  |  |  |  |  |  |  |
| CCNC(=O)c1noc(-c2cc(C(C)C)c(O)cc2O)c1-c1ccc(CN2CCOCC2)cc1 [Luminespib] |  |  |  |  |  |  |  |  | 94.8% | 96.9% | 113% | 104% | 102% | 103% | 97.2% | 103% | 57.9% | % Enzyme Activity (relative to DMSO controls) (382 unique human kinases [9]): 91.59%; % Enzyme Activity (relative to DMSO controls) (382 unique human kinases [10]): 95.95%; % Enzyme Activity (relative to DMSO controls) (382 unique human kinases [11]): 112.05%; % Enzyme Activity (relative to DMSO controls) (382 unique human kinases [12]): 103.61%; % Enzyme Activity (relative to DMSO controls) (382 unique human kinases [13]): 101.64%; % Enzyme Activity (relative to DMSO controls) (382 unique human kinases [14]): 101.32%; % Enzyme Activity (relative to DMSO controls) (382 unique human kinases [15]): 95.70%; % Enzyme Activity (relative to DMSO controls) (382 unique human kinases [16]): 100.81%; % Enzyme Activity (relative to DMSO controls) (382 unique human kinases [17]): 53.55% |
| CCNC(=O)c1noc(-c2cc(C(C)C)c(O)cc2O)c1-c1ccc(CN2CCOCC2)cc1 [Luminespib (AUY-922)] | 106% | 86.4% | 107% | 104% | 84.5% | 107% | 102% | 73.3% |  |  |  |  |  |  |  |  |  | % Enzyme Activity (relative to DMSO controls) (382 unique human kinases [1]): 103.13%; % Enzyme Activity (relative to DMSO controls) (382 unique human kinases [2]): 85.21%; % Enzyme Activity (relative to DMSO controls) (382 unique human kinases [3]): 105.32%; % Enzyme Activity (relative to DMSO controls) (382 unique human kinases [4]): 102.38%; % Enzyme Activity (relative to DMSO controls) (382 unique human kinases [6]): 107.14%; % Enzyme Activity (relative to DMSO controls) (382 unique human kinases [7]): 99.77%; % Enzyme Activity (relative to DMSO controls) (382 unique human kinases [8]): 71.05% |
| CC(C)c1cc(-c2n[nH]c(=O)n2-c2ccc3c(ccn3C)c2)c(O)cc1O [Ganetespib] |  |  |  |  |  |  |  |  | 100% | 113% | 99.8% | 99.7% | 99.4% | 99.3% | 106% | 54.1% | 32.1% |  |
